# In patent publication US12234257B2, “Triterpene saponin derivative and use thereof” (KOREA INSTITUTE OF SCIENCE AND TECHNOLOGY, priority 2020, dated 2025):
# “Also recorded” adds a separate entry of the source.
# How the values were obtained:
# Format in all cases: cell-based, human
# SH-SY5Y cells = assay: MTT assay to measure cell viability; details: 24 hours
# Method: Cell viability was detected using an MTT assay kit (Z-Cytox). Briefly, the SH-SY5Y cells were seeded on a 96-well plate at a density of 2×10^4 cells/well with 100 μL of a culture medium. After 24 hours, the SH-SY5Y cells were treated with AKNS-2 and/or MPP^+ having desired concentrations to identify cytotoxicity of AKNS-2 and MPP^+. After 24 hours, 10 μL of the MTT reagent was added to each well of the 96-well plate including the cells. Absorbance was measured at 450 nm using a microplate spectrophotometer (BioTek, Vt., USA). […] The next day, absorbance was measured at 1 hour after adding the MTT reagent thereto.
# [1] = tested on: LC3, p62, TH and α-synuclein in SH-SY5Y cells; assay: Western blot of LC3, p62, TH and α-synuclein in MPP^+-treated SH-SY5Y cells (in vitro PD model)
# Method: Human neuroblastoma (SH-SY5Y) cells were purchased from the American Type Culture Collection (Manassas, Va., USA) and cultured in DMEM supplemented with 10% heat-inactivated FBS and 1% penicillin/streptomycin. The SH-SY5Y cells were cultured at 37° C. in a humid atmosphere containing 5% CO2. […] The SH-SY5Y cells were transfected with AMPK siRNA and then administered with AKNS-2 at 36 hours after siRNA transfection. […] After 24 hours from treatment with the samples, the SH-SY5Y cells were recovered and used for subsequent analysis. At 24 hours after drug treatment, the culture medium was removed from the 6-well plate, and the cells were gently washed once with cold saline. Subsequently, 1 mL of cold saline was added to each well, and cells attached to the bottom were floated by rubbing the bottom with a 1 mL pipette. The suspension was collected in a 1.5 mL tube and centrifuged at 4° C. at 13000×g for 5 minutes. After removing a supernatant, 50 μL of a RIPA lysis buffer including a protease inhibitor cocktail (Roche, Mannheim, Germany) and purchased from Cell Signaling Technology (Danvers, Mass., USA) was added to the cell pellet. After shaking the mixture at 4° C. for 30 minutes, the obtained cells were centrifuged at 4° C. at 13000×g for 20 minutes. A supernatant was collected therefrom, and a concentration of proteins was measured using a standard curve constructed using BSA by the Bradford method. Then, the supernatant was diluted with a loading buffer and heated at 99° C. for 5 minutes. Resultant cells were used in a subsequent western blot analysis. Protein markers contained in lysates of the SH-SY5Y cells and brain tissue of the mice (SNpc and ST) were measured by western blot analysis. Briefly, after determining a concentration, a protein sample (20 μg) was separated by 8%, 10%, or 15% sodium dodecyl sulfate-polyacrylamide gel electrophoresis (SDS-PAGE). Then, proteins separated on the gel were transferred to a polyvinylidene fluoride (PVDF) membrane for 45 minutes using a Trans-Blot Turbo Transfer System (Bio-Rad, USA). […] The membrane was further incubated with monoclonal primary antibodies derived from rabbits (anti-GAPDH, anti-AMPK, anti-p-AMPK, anti-ULK, anti-p-ULK555, anti-Erk, anti-p-Erk, anti-mTOR, anti-p-mTOR, anti-LC3B, anti-TH, and anti-α-synuclein antibodies). The primary antibodies were diluted in a blocking buffer at a ratio of 1:1000 and incubated overnight at 4° C. On the second day, the membrane was washed with TBST three times (10 minutes each) and incubated at room temperature in a horseradish peroxidase-conjugated goat anti-rabbit IgG secondary antibody (diluted in a blocking buffer at a ratio of 1:2000). After incubating in the secondary antibody for 1 hour, the membrane was washed for 30 minutes. The protein blots on the membrane were developed using an ECL detection kit and visualized using an LAS-4000 mini system (Fujifilm, Japan). The intensity of the protein blots was quantified using Multi Gauge software (Fujifilm, Japan).
# LC3-II = assay: Autophagy induction assay (LC3-II/LC3-I ratio by western blot); details: SH-SY5Y cells; for LC3-II expression: treatment with astersaponin I
# Method: Protein markers contained in lysates of the SH-SY5Y cells and brain tissue of the mice (SNpc and ST) were measured by western blot analysis. Briefly, after determining a concentration, a protein sample (20 μg) was separated by 8%, 10%, or 15% sodium dodecyl sulfate-polyacrylamide gel electrophoresis (SDS-PAGE). Then, proteins separated on the gel were transferred to a polyvinylidene fluoride (PVDF) membrane for 45 minutes using a Trans-Blot Turbo Transfer System (Bio-Rad, USA). The membrane was washed with tris-buffered saline with 0.1% Tween 20, TBST) for 5 minutes and then blocked by 5% skim milk dissolved in a TBST buffer. The membrane was further incubated with monoclonal primary antibodies derived from rabbits (anti-GAPDH, anti-AMPK, anti-p-AMPK, anti-ULK, anti-p-ULK555, anti-Erk, anti-p-Erk, anti-mTOR, anti-p-mTOR, anti-LC3B, anti-TH, and anti-α-synuclein antibodies). The primary antibodies were diluted in a blocking buffer at a ratio of 1:1000 and incubated overnight at 4° C. On the second day, the membrane was washed with TBST three times (10 minutes each) and incubated at room temperature in a horseradish peroxidase-conjugated goat anti-rabbit IgG secondary antibody (diluted in a blocking buffer at a ratio of 1:2000). After incubating in the secondary antibody for 1 hour, the membrane was washed for 30 minutes. The protein blots on the membrane were developed using an ECL detection kit and visualized using an LAS-4000 mini system (Fujifilm, Japan). The intensity of the protein blots was quantified using Multi Gauge software (Fujifilm, Japan).
# To investigate the autophagy inducing effect of A. koraiensis, human neuroblastoma (SH-SY5Y) cells were cultivated in 6-well plates at a density of 8×10^5 cells/well in 2 mL DMEM medium (Gibco) at 37° C. in a humidified atmosphere with 5% CO2. […] The protein expression of LC3-II in cell lysates was measured using western blot analysis. […] The immune blots were visualized using an ECL detection kit and analyzed using a LAS-4000 mini system (Fujifilm).
smiles,measurement,setting,value
"C[C@@H]1O[C@@H](O[C@@H]2[C@@H](O)[C@H](O[C@@H]3[C@@H](O[C@@H]4OC[C@@H](O)[C@H](O)[C@H]4O)[C@@H](O)[C@H](O[C@H]4[C@H](OC(=O)[C@]56CCC(C)(C)C[C@H]5C5=CC[C@@H]7[C@@]8(C)C[C@H](O)[C@H](O[C@@H]9O[C@H](CO)[C@@H](O)[C@H](O[C@@H]%10OC[C@@H](O)[C@H](O)[C@H]%10O)[C@H]9O)[C@@](C)(CO)[C@@H]8CC[C@@]7(C)[C@]5(C)C[C@H]6O)OC[C@H](O)[C@@H]4O)O[C@H]3C)OC[C@H]2O)[C@H](O)[C@H](O)[C@H]1O [Compound 1, 3-O-β-D-xylopyranosyl-(1→3)-β-D-glucopyranosylpolygalacic acid 28-O-α-L-rhamnopyranosyl-(1→3)-β-D-xylopyranosyl-(1→4)-[β-D-xylopyranosyl-(1→3)]-α-L-rhamnopyranosyl-(1→2)-α-L-arabinopyranosyl ester]",cell viability damaged by MPP^+ (MTT),SH-SY5Y cells; AKNS-2 5 μM and 10 μM 1 hour before 2 mM MPP^+,significantly improved cell viability damaged by 2 mM MPP^+; also recorded: significantly enhanced cell viability that had decreased by MPP^+; also recorded: reversed the effects of MPP^+ on cell viability
same,"cytotoxicity (cell viability, MTT)","SH-SY5Y cells; AKNS-2 alone, up to 40 μM",did not significantly affect cytotoxicity
same,expression of TH,[1]; AKNS-2 (5 μM and 10 μM) + 2 mM MPP^+ vs MPP^+ alone,the MPP^+-induced decrease in expression of TH was reversed; also recorded: the decreased expression of TH may be restored; also recorded: offset toxicity of MPP^+ and reversed the expression of TH
same,expression of α-synuclein,[1]; AKNS-2 + 2 mM MPP^+ vs MPP^+ alone,canceled out the effects of MPP^+ and inhibited the expression of α-synuclein; also recorded: the increased expression level of α-synuclein was decreased
same,LC3-II/LC3-I ratio,"LC3-II; 24 hours, 5 μM, 10 μM and 20 μM",increase in the LC3-II/LC3-I ratio in a dose-dependent manner
same,LC3-II expression,LC3-II,significantly increasing the expression
same,LC3-II expression,LC3-II; listed as astersaponin I,up-regulated LC3-II expression in a dose-dependent manner
